Results as given in patent US6171809A, “Method and compositions for detecting luciferase biological samples” (priority 1998, dated 2001).
Where no end group is shown, it is not given here.

Tests used:
[1] = target: T1, human beta-2 adrenoceptor (Homo sapiens, UniProt P07550); test: Compound screening, renilla luciferase readout, CRE/firefly/V2 and CRE/ren/beta2 cells, beta2-adrenoceptor, Example 3; format: cell-based
T1 construct: expressed in transfected cells; host or cells: CHO (Chinese hamster ovary) cells stably carrying a CRE-renilla luciferase reporter
Method: (§1) Stable mammalian cell lines transfected with c-AMP responsive reporter genes containing either the firefly or renilla luciferase reporter proteins (CRE-firefly and CRE-ren) were generated.
(§2) These receptors are members of the super family of G-protein coupled receptors which interact with the stimulatory G-protein alpha unit.
Firefly luciferase and/or renilla luciferase producing CHO (Chinese hamster ovary) cells are cultured in tissue culture flasks and grown to 90% confluency. Twenty-four hours before the assay, the cells are quiesced in serum-free medium containing 1 mg/ml BSA (bovine serum albumin). Immediately prior to the assay, cells are removed with HBSS/EDTA (Hanks balanced salt solution containing EDTA), centrifuged and resuspended in 10 ml phenol red-free and serum-free medium supplemented with 1 mg/ml BSA. Next, the cells are plated into a 96 well microtiter plate at 90 μl/well and returned to the incubator. After 1 hour, 10 μl of the test compound, made up in either water or phenol red-free medium, is added. The microplates then are further incubated for 4 hours. Finally, the firefly luciferase detection reagent is made up and 100 μl of this detection solution is added to each well. After 10 minutes, the microplate is counted for firefly luciferase activity. […] The plate is left for 15 minutes in the dark and then counted for renilla luciferase activity. […]

[2] = system: CHO cells; test: Compound screening, endogenous response of CHO cells (CRE/firefly/V2 and CRE/ren/beta2), Example 3; format: cell-based, Chinese hamster ovary; conditions: for firefly luciferase response (endogenous): firefly luciferase detection reagent; for agonist activity at these cells: CRE/firefly/V2 and CRE/ren/beta2 cells
Method: as §1, §2
Firefly luciferase and/or renilla luciferase producing CHO (Chinese hamster ovary) cells are cultured in tissue culture flasks and grown to 90% confluency. Twenty-four hours before the assay, the cells are quiesced in serum-free medium containing 1 mg/ml BSA (bovine serum albumin). Immediately prior to the assay, cells are removed with HBSS/EDTA (Hanks balanced salt solution containing EDTA), centrifuged and resuspended in 10 ml phenol red-free and serum-free medium supplemented with 1 mg/ml BSA. Next, the cells are plated into a 96 well microtiter plate at 90 μl/well and returned to the incubator. After 1 hour, 10 μl of the test compound, made up in either water or phenol red-free medium, is added. The microplates then are further incubated for 4 hours. Finally, the firefly luciferase detection reagent is made up and 100 μl of this detection solution is added to each well. After 10 minutes, the microplate is counted for firefly luciferase activity. Next, to each well, 100 μl/well of 5 μM of coelenterazine in 2 mM EDTA buffer solution is added. The plate is left for 15 minutes in the dark and then counted for renilla luciferase activity.
CRE/firefly/V2 and CRE/ren/beta2 cells were mixed and plated into individual wells of a black 96-well ViewPlate and a range of compounds were applied to the cells.

[3] = system: adenylcyclase; test: Forskolin dose response, renilla luciferase reporter (CRE-ren CHO cells mixed with CRE-firefly cells), Example 1; format: cell-based, Chinese hamster ovary
Method: A kit for the sequential detection of firefly luciferase and renilla luciferase was prepared which consisted of a firefly luciferase assay reagent and a renilla luciferase assay reagent. The renilla luciferase reagent consisted of 5 μM of coelenterazine in 2 mM EDTA buffer with a pH 7.5. Stable mammalian cell lines transfected with c-AMP responsive reporter genes containing either the firefly or renilla luciferase reporter proteins (CRE-firefly and CRE-ren) were generated. Firefly luciferase and/or renilla luciferase producing CHO (Chinese hamster ovary) cells are cultured in tissue culture flasks and grown to 90% confluency. Twenty-four hours before the assay, the cells are quiesced in serum-free medium containing 1 mg/ml BSA (bovine serum albumin). Immediately prior to the assay, cells are removed with HBSS/EDTA (Hanks balanced salt solution containing EDTA), centrifuged and resuspended in 10 ml phenol red-free and serum-free medium supplemented with 1 mg/ml BSA. Next, the cells are plated into a 96 well microtiter plate at 90 μl/well and returned to the incubator. After 1 hour, 10 μl of the test compound, made up in either water or phenol red-free medium, is added. The microplates then are further incubated for 4 hours. Finally, the firefly luciferase detection reagent is made up and 100 μl of this detection solution is added to each well. After 10 minutes, the microplate is counted for firefly luciferase activity. Next, to each well, 100 μl/well of 5 μM of coelenterazine in 2 mM EDTA buffer solution is added. The plate is left for 15 minutes in the dark and then counted for renilla luciferase activity. CRE-ren cells were stimulated with 10 μM forskolin, a compound which directly activates adenylcyclase to cause an increase in the level of […] cAMP. […] The assay plates were counted in a TopCount™ Luminescence Counter (Packard Instrument Company) at 15 or 160 minutes after reagent addition. […] Furthermore, renilla luminescence generated using the composition of this invention, is 10-fold brighter than the firefly luciferase generated light signal.

[4] = system: adenylcyclase; test: Forskolin dose response, firefly luciferase reporter (CRE-firefly CHO cells mixed with CRE-ren cells), Example 1; format: cell-based, Chinese hamster ovary; conditions: 15 and 160 minutes after reagent addition; FIG. 1
Method: A kit for the sequential detection of firefly luciferase and renilla luciferase was prepared which consisted of a firefly luciferase assay reagent and a renilla luciferase assay reagent. The firefly luciferase reagent consisted of AMP, EDTA, firefly luciferin, ATP, DTT, phenylacetic acid and oxalic acid as originally described in U.S. Pat. No. 5,618,682. Stable mammalian cell lines transfected with c-AMP responsive reporter genes containing either the firefly or renilla luciferase reporter proteins (CRE-firefly and CRE-ren) were generated. Firefly luciferase and/or renilla luciferase producing CHO (Chinese hamster ovary) cells are cultured in tissue culture flasks and grown to 90% confluency. Twenty-four hours before the assay, the cells are quiesced in serum-free medium containing 1 mg/ml BSA (bovine serum albumin). […] After 10 minutes, the microplate is counted for firefly luciferase activity. […] The plate is left for 15 minutes in the dark and then counted for renilla luciferase activity. […] The assay plates were counted in a TopCount™ Luminescence Counter (Packard Instrument Company) at 15 or 160 minutes after reagent addition. […] Furthermore, renilla luminescence generated using the composition of this invention, is 10-fold brighter than the firefly luciferase generated light signal.

[5] = target: T1, human beta-2 adrenoceptor; test: beta2-adrenoceptor dose response, renilla luciferase readout after renilla detection reagent (CRE/ren/beta2 cells mixed with CRE/firefly/V2 cells), Example 2; format: cell-based
Method: as §1, §2
Firefly luciferase and/or renilla luciferase producing CHO (Chinese hamster ovary) cells are cultured in tissue culture flasks and grown to 90% confluency. Twenty-four hours before the assay, the cells are quiesced in serum-free medium containing 1 mg/ml BSA (bovine serum albumin). Immediately prior to the assay, cells are removed with HBSS/EDTA (Hanks balanced salt solution containing EDTA), centrifuged and resuspended in 10 ml phenol red-free and serum-free medium supplemented with 1 mg/ml BSA. Next, the cells are plated into a 96 well microtiter plate at 90 μl/well and returned to the incubator. After 1 hour, 10 μl of the test compound, made up in either water or phenol red-free medium, is added. The microplates then are further incubated for 4 hours. Finally, the firefly luciferase detection reagent is made up and 100 μl of this detection solution is added to each well. After 10 minutes, the microplate is counted for firefly luciferase activity. […] The plate is left for 15 minutes in the dark and then counted for renilla luciferase activity.

T1 sequence (P07550 whole entry): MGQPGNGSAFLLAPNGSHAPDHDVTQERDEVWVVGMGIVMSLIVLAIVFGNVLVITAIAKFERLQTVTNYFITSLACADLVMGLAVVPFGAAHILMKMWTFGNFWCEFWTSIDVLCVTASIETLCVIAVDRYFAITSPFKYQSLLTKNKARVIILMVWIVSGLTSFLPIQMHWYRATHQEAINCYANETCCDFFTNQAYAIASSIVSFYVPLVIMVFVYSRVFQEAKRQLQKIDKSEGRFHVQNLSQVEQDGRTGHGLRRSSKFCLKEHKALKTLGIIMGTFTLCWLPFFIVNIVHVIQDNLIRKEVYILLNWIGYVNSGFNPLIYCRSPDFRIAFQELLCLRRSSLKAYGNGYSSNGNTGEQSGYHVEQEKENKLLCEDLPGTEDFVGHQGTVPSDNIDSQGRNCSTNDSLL

## NC(=O)CC[C@@H]1NC(=O)[C@H](Cc2ccccc2)NC(=O)[C@H](Cc2ccc(O)cc2)NC(=O)CCSSC[C@@H](C(=O)N2CCC[C@H]2C(=O)N[C@H](CCCN=C(N)N)C(=O)NCC(N)=O)NC(=O)[C@H](CC(N)=O)NC1=O [desmopressin]
[1]
  luminescence signal following addition of renilla luciferase detection reagent: not significantly above basal

## C=C[C@@]1(C)CC(=O)[C@]2(O)[C@@]3(C)[C@@H](O)CCC(C)(C)[C@@H]3[C@H](O)[C@H](OC(C)=O)[C@@]2(C)O1 [forskolin]
[2]
  action on CHO cells (conclusion): act on CHO cells to generate an endogenous response
  firefly luciferase response (endogenous): a firefly luciferase response was obtained
  luminescent signal following addition of renilla luciferase detection reagent (endogenous): A luminescent signal was maintained
[3]; 15 minutes after reagent addition
  renilla luciferase luminometric response: 3.5×10^6
[3]; 160 minutes after reagent addition
  renilla luciferase luminometric response: 1.8×10^6
[3]; renilla response, 15 versus 160 minutes
  EC50 for forskolin stimulation of adenyl cyclase: remains similar
[4]
  nature of the firefly luminescence: identical at 15 and 160 minutes after reagent addition

## CC(C)C[C@H](NC(=O)[C@H](CCCCN)NC(=O)[C@H](CCCN=C(N)N)NC(=O)[C@H](C)NC(=O)[C@H](CO)NC(=O)[C@H](CCCCN)NC(=O)[C@H](CCCN=C(N)N)NC(=O)[C@H](C)NC(=O)CNC(=O)[C@@H](NC(=O)[C@H](Cc1ccccc1)NC(=O)CNC(=O)CNC(=O)[C@@H](N)Cc1ccccc1)[C@@H](C)O)C(=O)N[C@@H](C)C(=O)N[C@@H](CC(N)=O)C(=O)N[C@@H](CCC(N)=O)C(=O)O [nociceptin]
[2]
  agonist activity at these cells: not agonists active at these cells

## NCCc1c[nH]c2ccc(O)cc12 [serotonin]
[2]
  agonist activity at these cells: not agonists active at these cells

## NC(=O)CC[C@@H]1NC(=O)[C@H](Cc2ccccc2)NC(=O)[C@H](Cc2ccc(O)cc2)NC(=O)[C@@H](N)CSSC[C@@H](C(=O)N2CCC[C@H]2C(=O)N[C@@H](CCCN=C(N)N)C(=O)NCC(N)=O)NC(=O)[C@H](CC(N)=O)NC1=O [vasopressin]
[1]
  luminescence signal following addition of renilla luciferase detection reagent: not significantly above basal
[5]; FIG. 2
  stimulation of renilla luminescence: did not stimulate renilla luminescence
[5]; renilla detection reagent added to the same cells
  response curve after subsequent addition of renilla detection reagent: flattened

## thyro-calcitonin (CGNLSTCMLGTYTQDFNKFHTFPQTAIGVGAP; ends and bridges not checked; cysteine pairing not given here; UniProt P01258 85-116, looked up) [CHO cells express an endogenous calcitonin receptor]
[2]
  action on CHO cells (conclusion): act on CHO cells to generate an endogenous response
  firefly luciferase response (endogenous): a firefly luciferase response was obtained
  luminescent signal following addition of renilla luciferase detection reagent (endogenous): A luminescent signal was maintained
